Assay results: publication PMC8043927, “Mycelial culture extracts of selected wood-decay mushrooms as a source of skin-protecting factors” (Biotechnology Letters, 2021)

Target: T1, hyaluronidase
T1 construct: gene SPAM1; bovine testicular enzyme is the usual preparation
Experiment: turbidimetric assay with CTAB, […] nm
Assay type: biochemical
Details: hyaluronic acid substrate, acetate buffer pH 4.5, 37 °C, 45 min

O=c1c(O)c(-c2ccc(O)c(O)c2)oc2cc(O)cc(O)c12 [quercetin (dihydrate)]
Inhibition of hyaluronidase activity / Positive control: 509.79 µg/mL
